Assay [1] relates to Beet Armyworm (Spodoptera exigua). In words: Bioassay on Beet Armyworm (BAW), 128-well diet tray assay. The assay is classed as in vivo. To be noted: for pest or weed control at 50 µg/cm2: Beet Armyworm, Table ABC, read-out: BAW rating. The procedure: (§1) Example A: Bioassays on Beet Armyworm (Spodoptera Exigua, LAPHEG) (“BAW”), Corn Earworm (Helicoverpa Zea, HELIZE) (“CEW”), and Cabbage Looper (Trichoplusia Ni, TRIPNI) (“CL”)
(§2) Certain molecules disclosed in this document were tested against BAW, CEW, and CL using procedures described in the following examples. In the reporting of the results, the “BAW, CEW, & CL Rating Table” was used (See Table Section).
Bioassays on BAW were conducted using a 128-well diet tray assay. One to five second instar BAW larvae were placed in each well (3 mL) of the diet tray that had been previously filled with 1 mL of artificial diet to which 50 μg/cm^2 of the test molecule (dissolved in 50 μL of 90:10 acetone-water mixture) had been applied (to each of eight wells) and then allowed to dry. Trays were covered with a clear self-adhesive cover and held at 25° C., 14:10 light-dark for five to seven days. Percent mortality was recorded for the larvae in each well; activity in the eight wells was then averaged. The results are indicated in the table entitled “Table ABC: Biological Results” (See Table Section).
(§3) Bioassays on BAW and CL were conducted according to the procedures outlined in Example A: Bioassays on Beet Armyworm (“BAW”) and Cabbage Looper (“CL”) using the indicated concentrations.

The test system of assay [2] is Cabbage Looper (Trichoplusia ni). In words: Bioassay on Cabbage Looper (CL), 128-well diet tray assay. In kind it is in vivo. The note with it: for pest or weed control at 50 µg/cm2: Cabbage Looper, Table ABC, read-out: CL rating. The procedure: as §1, §2
Bioassays on CL were conducted using a 128-well diet tray assay. One to five second instar CL larvae were placed in each well (3 mL) of the diet tray that had been previously filled with 1 mL of artificial diet to which 50 μg/cm^2 of the test molecule (dissolved in 50 μL of 90:10 acetone-water mixture) had been applied (to each of eight wells) and then allowed to dry. Trays were covered with a clear self-adhesive cover and held at 25° C., 14:10 light-dark for five to seven days. Percent mortality was recorded for the larvae in each well; activity in the eight wells was then averaged. The results are indicated in the table entitled “Table ABC: Biological Results” (See Table Section).
as §3

SMILES strings stand for the structures.

By mortality is commonly meant the share of the test organisms that died.

Regarding `CCN(CC(F)(F)F)C(=O)[C@@H](C)NC(=O)c1ccc(/C(F)=C/C(c2cc(Cl)c(Cl)c(Cl)c2)C(F)(F)F)cc1Br` (stereo partly drawn) [F25, 2-Bromo-N—((R)-1-(ethyl(2,2,2-trifluoroethyl)amino)-1-oxopropan-2-yl)-4-((Z)-1,4,4,4-tetrafluoro-3-(3,4,5-trichlorophenyl)but-1-en-1-yl)benzamide], the pest or weed control at 50 µg/cm2 in assay [1] and in assay [2] was 50 to 100% throughout.

Regarding `CC(NC(=O)CNC(=O)c1ccc(/C(F)=C/C(c2cc(Cl)c(Cl)c(Cl)c2)C(F)(F)F)cc1Cl)C(F)(F)F` (centres unmarked) [F66, (Z)-2-Chloro-N-(2-oxo-2-((1,1,1-trifluoropropan-2-yl)amino)ethyl)-4-(1,4,4,4-tetrafluoro-3-(3,4,5-trichlorophenyl)but-1-en-1-yl)benzamide], the pest or weed control at 50 µg/cm2 in assay [1] and in assay [2] was 50 to 100% in each case.

With `Cc1cc(/C(F)=C/C(c2cc(Cl)c(Cl)c(Cl)c2)C(F)(F)F)ccc1C(=O)NCC(=O)NCC(F)(F)F` (centres unmarked) [F6, (Z)-2-Methyl-N-(2-oxo-2-((2,2,2-trifluoroethyl)amino)ethyl)-4-(1,4,4,4-tetrafluoro-3-(3,4,5-trichlorophenyl)but-1-en-1-yl)benzamide], the mortality at 0.05 µg/cm2 in assay [1] (168 h, 0.05 μg/cm^2 on artificial diet, second instar larvae, five to seven days, read-out: BAW Percent control (or mortality)) is 100%; in assay [2] (168 h, 0.05 μg/cm^2 on artificial diet, second instar larvae, five to seven days, read-out: CL Percent control (or mortality)), 100%. Further, the mortality at 0.5 µg/cm2 came out at 100% in assay [1] (168 h, 0.5 μg/cm^2 on artificial diet, second instar larvae, five to seven days, read-out: BAW Percent control (or mortality)) and 100% in assay [2] (168 h, 0.5 μg/cm^2 on artificial diet, second instar larvae, five to seven days, read-out: CL Percent control (or mortality)). Also, the pest or weed control at 50 µg/cm2 in assay [1] and in assay [2] was 50 to 100% throughout.

With `O=C(N[C@@H]1CCN(CC(F)(F)F)C1=O)c1ccc(/C(F)=C/C(c2cc(Cl)c(Cl)c(Cl)c2)C(F)(F)F)cc1C(F)(F)F` (stereo partly drawn) [F171, N—((R)-2-Oxo-1-(2,2,2-trifluoroethyl)pyrrolidin-3-yl)-4-((Z)-1,4,4,4-tetrafluoro-3-(3,4,5-trichlorophenyl)but-1-en-1-yl)-2-(trifluoromethyl)benzamide], the pest or weed control at 50 µg/cm2 in assay [1] and in assay [2] was 50 to 100% each time.

For `C=CCNC(=O)C1(NC(=O)c2ccc(/C(F)=C/C(c3cc(Cl)c(Cl)c(Cl)c3)C(F)(F)F)cc2C(F)(F)F)CC1` (centres unmarked) [F5, (Z)—N-(1-(Allylcarbamoyl)cyclopropyl)-4-(1,4,4,4-tetrafluoro-3-(3,4,5-trichlorophenyl)but-1-en-1-yl)-2-(trifluoromethyl)benzamide], the pest or weed control at 50 µg/cm2 in assay [1] and in assay [2] was 50 to 100% each time.

With `C[C@@H](NC(=O)c1ccc(/C(F)=C/C(c2cc(Cl)cc(OCC(F)(F)F)c2)C(F)(F)F)cc1C(F)(F)F)C(=O)NCC(F)(F)F` (stereo partly drawn) [F207, 4-((Z)-3-(3-chloro-5-(2,2,2-trifluoroethoxy)phenyl)-1,4,4,4-tetrafluorobut-1-en-1-yl)-N—((R)-1-oxo-1-((2,2,2-trifluoroethyl)amino)propan-2-yl)-2-(trifluoromethyl)benzamide], the pest or weed control at 50 µg/cm2 in assay [1] and in assay [2] was 50 to 100% in each case.

`CN(CC(F)(F)F)C(=O)C1(NC(=O)c2ccc(/C(F)=C/C(c3cc(Cl)cc(C(F)(F)F)c3)C(F)(F)F)cc2C(F)(F)F)CC1` (centres unmarked) [PF45, (Z)-4-(3-(3-Chloro-5-(trifluoromethyl)phenyl)-1,4,4,4-tetrafluorobut-1-en-1-yl)-N-(1-(methyl(2,2,2-trifluoroethyl)carbamoyl)cyclopropyl)-2-(trifluoromethyl)benzamide]: the pest or weed control at 50 µg/cm2 in assay [1] and in assay [2] was 50 to 100% each time.

With `C[C@@H](NC(=O)c1ccc(/C(F)=C/C(c2cc(Cl)c(Cl)c(Cl)c2)C(F)(F)F)cc1Cl)C(=O)NCC(F)F` (stereo partly drawn) [F32, 2-Chloro-N—((R)-1-((2,2-difluoroethyl)amino)-1-oxopropan-2-yl)-4-((Z)-1,4,4,4-tetrafluoro-3-(3,4,5-trichlorophenyl)but-1-en-1-yl)benzamide], the pest or weed control at 50 µg/cm2 in assay [1] and in assay [2] was 50 to 100% in each case.

These data come from patent publication US10251394B2, “Molecules having pesticidal utility, and intermediates, compositions, and processes, related thereto” (Dow AgroSciences LLC, priority 2016, dated 2019).
